Like-named read-outs stand apart in the source and are kept apart here.
Experiments:
Assay type in all cases: physicochemical
[1] = Log partition coefficient of solvent A
[2] = Surface tension of solvent A at 20° C.
Experimental: (§1) The present invention will be described in detail hereinafter by mentioning preferable embodiments. When a compound is a salt in the present invention, the salt exists while dissociating into ions in an ink, but this is expressed as “containing a salt” for convenience. An aqueous inkjet ink may be described as just an “ink.” The physical property values are values at 20° C. unless otherwise specified.
(§2) The vapor pressure of the solvent A at 20° C. is 0.5 mmHg or less, and the surface tension at 20° C. is 30 mN/m or more. When the vapor pressure is more than 0.5 mmHg, oil films formed on ejection ports evaporate, and the effect of suppressing water evaporation becomes weak. When the surface tension is less than 30 mN/m, the intermolecular force is weak. Therefore, oil films cannot be formed. The vapor pressure of the solvent A at 20° C. can be 0.2 mmHg or less. The surface tension of the solvent A at 20° C. can be 36 mN/m or more. Specific examples of the solvent A are illustrated in Table 1.

[3] = Vapor pressure of solvent A at 20° C.
Experimental: as §1, §2

[4] = Water solubility of solvent A at 20° C.; conditions: for Water solubility (% by mass): 20° C.
Experimental: When a compound is a salt in the present invention, the salt exists while dissociating into ions in an ink, but this is expressed as “containing a salt” for convenience. An aqueous inkjet ink may be described as just an “ink.” The physical property values are values at 20° C. unless otherwise specified.
This solvent A is a so-called poorly water-soluble compound (poorly water-soluble solvent), which is poorly dissolved in water. […] When water in the ink evaporates and the concentration increases, the solvent A cannot be completely dissolved in the ink to separate from the ink. Because the tips of non-printing nozzles are exposed to the atmosphere, water in the ink volatilizes particularly easily.

Structure (SMILES)	Log partition coefficient [1]	Surface tension (mN/m) [2]	Vapor pressure (mmHg) [3]	Water solubility (% by mass) [4]	water solubility of the solvent A in the prepared ink ([4]; solvent A of ink 1)	Vapor pressure (mmHg) ([3]; 20° C.)
OCCOc1ccccc1 [2-Phenoxyethanol]	1.16	40 mN/m	0 mmHg	2.67 % by mass	2.7%	–
CC(O)Cc1ccccc1 (stereo not shown) [1-Phenyl-2-propanol]	1.71	37.3 mN/m	–	0.58 % by mass	–	0.1 mmHg
CC(O)COc1ccccc1 (stereo not shown) [1-Phenoxy-2-propanol]	1.51	37.7 mN/m	0 mmHg	1.1 % by mass	–	–

More lines, main results first:

Log partition coefficient [1]	Surface tension (mN/m) [2]	Vapor pressure (mmHg) [3]	Water solubility (% by mass) [4]	Structure (SMILES)	water solubility of the solvent A in the prepared ink ([4]; solvent A of ink 1)	Vapor pressure (mmHg) ([3]; 20° C.)
1.88	38.9 mN/m	0 mmHg	0.568 % by mass	OCCCc1ccccc1 [3-Phenyl-1-propanol]	–	–
–	39.7 mN/m	0.1 mmHg	2.2 % by mass	OCCc1ccccc1 [Phenethyl alcohol]	–	–
1.03	39 mN/m	0.1 mmHg	4.29 % by mass	OCc1ccccc1 [Benzyl alcohol]	–	–
2.4	38.3 mN/m	0 mmHg	0.1 % by mass	OCCCCc1ccccc1 [4-Phenyl-1-butanol]	–	–
